From PMC10257182, “Discovery of senolytics using machine learning” (Nature Communications, 2023)
Where two headings read alike, the source gives them in different places.

Test system: non-senescent control IMR90 ER:RAS cells
Assay: Nuclei count (Hoechst, high content imaging) senolytic assay, OIS model, non-senescent control cells
Type: cell-based, human
Conditions: Homo sapiens; for viability at 4.677 µM: log (dose) [M] -5.33, 72 h; for viability at 4.68 µM: log (dose) [M] -5.33
How it was run: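 We compared total nuclei counts between senescent and non-senescent IMR90 ER:RAS cells after 72 h compound exposure (10 nM–10 μM). Hoechst staining followed fixation and permeabilisation; ouabain served as senolytic positive control.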

[1] = IMR-90, 72 h, Control, log (dose) [M] -5, 72 h, mean n=3 (Fig 3C), read-out: Mean % Cell Survival
[2] = IMR-90, 72 h, Control, mean n=3 (Fig 3C), read-out: Mean % Cell Survival
[3] = IMR-90, 72 h, Control, log (dose) [M] -5.66, 72 h, mean n=3 (Fig 3C), read-out: Mean % Cell Survival
[4] = IMR-90, 72 h, Control, log (dose) [M] -6, 72 h, mean n=3 (Fig 3C), read-out: Mean % Cell Survival
[5] = IMR-90, 72 h, Control, log (dose) [M] -6.33, 72 h, mean n=3 (Fig 3C), read-out: Mean % Cell Survival
[6] = IMR-90, 72 h, Control, log (dose) [M] -6.66, 72 h, mean n=3 (Fig 3C), read-out: Mean % Cell Survival
[7] = IMR-90, 72 h, Control, log (dose) [M] -7, 72 h, mean n=3 (Fig 3C), read-out: Mean % Cell Survival
[8] = IMR-90, 72 h, Control, log (dose) [M] -7.33, 72 h, mean n=3 (Fig 3C), read-out: Mean % Cell Survival
[9] = IMR-90, 72 h, Control, log (dose) [M] -7.66, 72 h, mean n=3 (Fig 3C), read-out: Mean % Cell Survival
[10] = IMR-90, 72 h, Control, log (dose) [M] -8, 72 h, mean n=3 (Fig 3C), read-out: Mean % Cell Survival
[11] = IMR-90, Control cells, log (dose) [M] -5.66, individual replicates, SUP FIG 4C, read-out: % Cell Survival
[12] = IMR-90, Control cells, log (dose) [M] -7.33, individual replicates, SUP FIG 4C, read-out: % Cell Survival
[13] = IMR-90, Control cells, log (dose) [M] -7.66, individual replicates, SUP FIG 4C, read-out: % Cell Survival
[14] = IMR-90, Control cells, log (dose) [M] -8, individual replicates, SUP FIG 4C, read-out: % Cell Survival
[15] = IMR-90, Control, read-out: % Cell Survival
[16] = IMR-90, Control, log (dose) [M] -5.66, read-out: % Cell Survival
[17] = IMR-90, Control, log (dose) [M] -6.66, read-out: % Cell Survival
[18] = IMR-90, Control, log (dose) [M] -7, read-out: % Cell Survival
[19] = IMR-90, Control, log (dose) [M] -7.33, read-out: % Cell Survival
[20] = IMR-90, Control, log (dose) [M] -7.66, read-out: % Cell Survival
[21] = IMR-90, Control, log (dose) [M] -8, read-out: % Cell Survival

Compound	viability at 10 µM [1]	viability at 4.677 µM [2]	viability at 2.188 µM [3]	viability at 1 µM [4]	viability at 0.4677 µM [5]	viability at 0.2188 µM [6]	viability at 0.1 µM [7]	viability at 0.04677 µM [8]	viability at 0.02188 µM [9]	viability at 0.01 µM [10]	viability at 2.188 µM [11]	viability at 0.04677 µM [12]	viability at 0.02188 µM [13]	viability at 0.01 µM [14]	viability at 4.68 µM [15]	viability at 2.19 µM [16]	viability at 0.219 µM [17]	viability at 0.1 µM [18]	viability at 0.04677 µM [19]	viability at 0.0219 µM [20]	also measured
Cc1c(-c2c(F)cc(C(N)=O)c3[nH]c4c(c23)CC[C@H](C(C)(C)O)C4)cccc1-n1c(=O)c2cccc(F)c2n(C)c1=O [BMS 986142]	97.1%	136%	117%	115%	97.6%	107%	108%	105%	114%	104%	125%	108%	116%	104%	99.7%	88.8%	111%	92.2%	101%	94.6%	viability at 10 µM (IMR-90, Control cells, log (dose) [M] -5, individual replicates, SUP FIG 4C, read-out: % Cell Survival): 104%; viability at 1 µM (IMR-90, Control cells, log (dose) [M] -6, individual replicates, SUP FIG 4C, read-out: % Cell Survival): 119%; viability at 0.2188 µM (IMR-90, Control cells, log (dose) [M] -6.66, individual replicates, SUP FIG 4C, read-out: % Cell Survival): 108%; viability at 0.1 µM (IMR-90, Control cells, log (dose) [M] -7, individual replicates, SUP FIG 4C, read-out: % Cell Survival): 107%; viability at 1 µM (IMR-90, Control, log (dose) [M] -6, read-out: % Cell Survival): 97.9%; viability at 0.468 µM (IMR-90, Control, log (dose) [M] -6.33, read-out: % Cell Survival): 91.9%; viability at 0.01 µM [21]: 95.3%
O=c1c(O)c(-c2ccc(O)cc2)oc2c(O)c(O)cc(O)c12 [Herbacetin, herbacetin]	100%	108%	97.9%	74.4%	94.9%	93.5%	94.6%	102%	109%	107%	94.1%	100%	120%	113%	96.8%	91.6%	93.8%	91.7%	92.8%	98.3%	viability at 0.4677 µM (IMR-90, Control cells, log (dose) [M] -6.33, individual replicates, SUP FIG 4C, read-out: % Cell Survival): 105%; viability at 10 µM (IMR-90, Control, log (dose) [M] -5, read-out: % Cell Survival): 97.9%; viability at 0.01 µM [21]: 100%
